The compounds below were run against PIK3CG (human) (UniProt P48736) (assay: Assessment of PIK3CG Kinase Activity).
Sequence of PIK3CG (human) (P48736 whole entry, looked up): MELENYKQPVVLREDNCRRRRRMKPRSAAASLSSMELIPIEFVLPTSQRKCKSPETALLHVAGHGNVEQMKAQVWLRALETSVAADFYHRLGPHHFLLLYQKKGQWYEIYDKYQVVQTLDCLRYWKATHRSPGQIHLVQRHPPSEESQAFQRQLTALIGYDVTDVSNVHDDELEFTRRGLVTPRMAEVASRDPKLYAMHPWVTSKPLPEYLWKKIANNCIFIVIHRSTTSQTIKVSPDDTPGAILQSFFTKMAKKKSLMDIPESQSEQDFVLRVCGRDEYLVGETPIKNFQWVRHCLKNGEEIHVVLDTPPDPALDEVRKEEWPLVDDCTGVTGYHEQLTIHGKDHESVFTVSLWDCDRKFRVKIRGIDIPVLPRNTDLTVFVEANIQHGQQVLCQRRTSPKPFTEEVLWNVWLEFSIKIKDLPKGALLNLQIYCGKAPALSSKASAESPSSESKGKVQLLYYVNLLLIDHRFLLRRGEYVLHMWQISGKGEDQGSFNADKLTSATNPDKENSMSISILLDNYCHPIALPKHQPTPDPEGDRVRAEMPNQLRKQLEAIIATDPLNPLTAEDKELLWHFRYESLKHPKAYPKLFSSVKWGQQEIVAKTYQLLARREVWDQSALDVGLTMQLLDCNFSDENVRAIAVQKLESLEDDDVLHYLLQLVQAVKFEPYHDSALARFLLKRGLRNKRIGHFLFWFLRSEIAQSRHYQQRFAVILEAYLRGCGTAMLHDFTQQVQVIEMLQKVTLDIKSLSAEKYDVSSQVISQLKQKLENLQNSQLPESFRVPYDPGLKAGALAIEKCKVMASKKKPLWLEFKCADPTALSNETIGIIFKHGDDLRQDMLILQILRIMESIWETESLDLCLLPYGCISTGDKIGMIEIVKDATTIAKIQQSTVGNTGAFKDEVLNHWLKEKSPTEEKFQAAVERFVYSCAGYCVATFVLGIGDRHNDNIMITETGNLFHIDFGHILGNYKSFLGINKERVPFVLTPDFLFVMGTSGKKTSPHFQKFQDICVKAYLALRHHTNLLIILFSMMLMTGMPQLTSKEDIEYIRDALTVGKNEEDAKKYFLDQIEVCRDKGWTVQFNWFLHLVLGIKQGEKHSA

Row | Structure (SMILES) | IC50
1 | CC(=O)Nc1nc2c(s1)-c1c(c(-c3ccccc3)nn1-c1ccccc1C(F)(F)F)CC2 | < 0.8 µM
2 | CC(=O)Nc1nc2c(s1)-c1c(cnn1-c1ccc(C(=O)NCCC3CCCN3C)cc1)CC2 (stereo not drawn) | < 0.8 µM
3 | CC(=O)Nc1nc2c(s1)-c1c(cnn1-c1ccc(C(=O)NC3CCC4(CC3)OCCO4)cc1)CC2 | < 0.8 µM
4 | CC(=O)Nc1nc2c(s1)-c1c(cnn1-c1ccc(CC(=O)N3CCC4(CC3)CNC(=O)O4)cc1)CC2 | < 0.8 µM
5 | CC(=O)Nc1nc2c(s1)-c1c(cnn1-c1ccccc1Cl)C2 | < 0.8 µM
6 | CNc1ncc2c(n1)-c1sc(NC(C)=O)nc1CC2 | < 0.8 µM
7 | CC(=O)Nc1nc2c(s1)-c1c(cnn1-c1ccc(C(=O)N[C@@H](Cc3cccnc3)C(N)=O)cc1Cl)CC2 | < 0.8 µM
8 | CN1CCN(C(=O)Nc2nc3c(s2)-c2c(cnn2-c2ccccc2)C3)CC1 | < 0.8 µM
9 | CC(=O)Nc1nc2c(s1)-c1c(c(C(=O)N[C@@H]3CCOC3=O)nn1-c1ccccc1)CC2 | < 0.8 µM
10 | CC(=O)Nc1nc2c(s1)-c1c(c([C@H]3CCCO3)nn1-c1ccccc1C(F)(F)F)CC2 | < 0.8 µM
11 | CC(=O)Nc1nc2c(s1)-c1nc(N3CCCCC3)ncc1CC2 | < 0.8 µM
12 | CC(=O)Nc1nc2c(s1)-c1c(cnn1-c1ccc(CC(=O)N(C)CC(C)O)cc1)CC2 (stereo not drawn) | < 0.8 µM
13 | CC(=O)Nc1nc2c(s1)-c1c(cnn1-c1ccc(F)cc1)CC2 | < 0.8 µM
14 | CN(C)C(=O)Nc1nc2c(s1)-c1c(cnn1-c1ccccc1Cl)C2 | < 0.8 µM
15 | CC(=O)Nc1nc2c(s1)-c1c(cnn1-c1ccc(C(=O)NCCO)cc1)CC2 | < 0.8 µM
16 | CC(=O)Nc1nc2c(s1)-c1c(cnn1-c1ccc(C(=O)N[C@H]3CC[C@H](N4C[C@@H](C)O[C@@H](C)C4)CC3)cc1)CC2 | < 0.8 µM
17 | CC(=O)Nc1nc2c(s1)-c1c(cnn1-c1ccc(C(=O)N[C@H](CC(=O)O)C(N)=O)cc1Cl)CC2 | < 0.8 µM
18 | CC(=O)Nc1nc2c(s1)-c1c(cnn1-c1ccccn1)CC2 | < 0.8 µM
19 | CC(=O)Nc1nc2c(s1)-c1c(cnn1-c1ccc(C(=O)NCCCN3CCOCC3)cc1)CC2 | < 0.8 µM
20 | CC(=O)Nc1nc2c(s1)-c1c(cnn1-c1ccc(C(=O)N[C@H]3CC[C@H](N4CCCCC4)CC3)cc1)CC2 | < 0.8 µM
21 | Cc1ccccc1-c1ncc2c(n1)-c1sc(NC(=O)N(C)C)nc1CC2 | < 0.8 µM
22 | CC(=O)Nc1nc2c(s1)-c1c(cnn1-c1ccc(CC(=O)NCC3OCCO3)cc1)CC2 | < 0.8 µM
23 | CC(=O)Nc1nc2c(s1)-c1c(c(-c3ccccn3)nn1-c1ccccc1)CC2 | < 0.8 µM
24 | CC(=O)Nc1nc2c(s1)-c1c(cnn1-c1ccc(C(=O)NCCCCCCNC(=O)Cc3ccccc3)cc1)CC2 | < 0.8 µM
25 | CC(=O)Nc1nc2c(s1)-c1c(cnn1-c1c(Cl)cccc1Cl)CC2 | < 0.8 µM

Row | Structure (SMILES) | IC50
26 | COc1ccccc1-n1ncc2c1-c1sc(NC(C)=O)nc1CC2 | < 0.8 µM
27 | CC(=O)Nc1nc2c(s1)-c1c(c(C#C[Si](C)(C)C)nn1-c1ccccc1Cl)CC2 | < 0.8 µM
28 | CC(=O)Nc1nc2c(s1)-c1c(cnn1-c1ccc(F)cc1F)CC2 | < 0.8 µM
29 | C#CCNc1ncc2c(n1)-c1sc(NC(C)=O)nc1CC2 | < 0.8 µM
30 | CC(=O)Nc1nc2c(s1)-c1nc(Cc3c(Cl)cccc3Cl)ncc1CC2 | < 0.8 µM
31 | CNS(=O)(=O)c1ccc(-n2ncc3c2-c2sc(NC(C)=O)nc2CC3)cc1 | < 0.8 µM
32 | CC(=O)Nc1nc2c(s1)-c1c(c(-c3ccco3)nn1-c1ccccc1)CC2 | < 0.8 µM
33 | CC(=O)Nc1nc2c(s1)-c1nn(C(C)=O)cc1CC2 | < 0.8 µM
34 | CC(=O)Nc1nc2c(s1)-c1c(c(NC(=O)Oc3ccccc3)nn1-c1ccccc1Cl)CC2 | < 0.8 µM
35 | CC(=O)Nc1nc2c(s1)-c1c(cnn1-c1ccc(C(=O)NCCc3c[nH]cn3)cc1)CC2 | < 0.8 µM
36 | CC(=O)Nc1nc2c(s1)-c1c(cnn1-c1ccc(C(=O)N[C@@H](C(N)=O)C(C)C)cc1Cl)CC2 | < 0.8 µM
37 | CC(=O)Nc1nc2c(s1)-c1c(c(-c3ccco3)nn1-c1ccc(C(N)=O)cc1Cl)CC2 | < 0.8 µM
38 | CC(=O)Nc1nc2c(s1)-c1c(c([C@H]3CCCO3)nn1-c1ccc(C(=O)N[C@H]3CC[C@@H](N4CCCC4)CC3)cc1Cl)CC2 | < 0.8 µM
39 | CC(=O)Nc1nc2c(s1)-c1c(cnn1-c1ccc(C(=O)N3CCCC(O)C3)cc1)CC2 (stereo not drawn) | < 0.8 µM
40 | CC(=O)Nc1nc2c(s1)-c1c(cnn1-c1ccc(C(=O)NC3CCOC3=O)cc1)CC2 (stereo not drawn) | < 0.8 µM
41 | Cc1ccccc1-c1ncc2c(n1)-c1sc(NC(N)=O)nc1CC2 | < 0.8 µM
42 | COC(=O)c1nn(-c2ccccc2F)c2c1CCc1nc(NC(C)=O)sc1-2 | < 0.8 µM
43 | Nc1nc2c(s1)-c1c(cnn1-c1ccccc1)C2 | < 0.8 µM
44 | CC(=O)Nc1nc2c(s1)-c1nn(-c3ccc(C(=O)NC4CCN(C)CC4)cc3Cl)c(-c3ccco3)c1CC2 | < 0.8 µM
45 | CC(=O)Nc1nc2c(s1)-c1c(cnn1-c1ccc(CC(=O)N[C@@H]3CCOC3=O)cc1)CC2 | < 0.8 µM
46 | CC(=O)Nc1nc2c(s1)-c1c(cnn1-c1cccc(C)c1)CC2 | < 0.8 µM
47 | NC(=O)Nc1nc2c(s1)-c1c(cnn1-c1ccccc1)CC2 | < 0.8 µM
48 | CC(=O)Nc1nc2c(s1)-c1nn(C(=O)C3CC3)cc1CC2 | < 0.8 µM
49 | C=C1CCN(C(=O)c2ccc(-n3ncc4c3-c3sc(NC(C)=O)nc3CC4)cc2)CC1 | < 0.8 µM
50 | CC(=O)Nc1nc2c(s1)-c1c(cnn1-c1ccc(CC(=O)Nc3cc(O)[nH]n3)cc1)CC2 | < 0.8 µM

Row | Structure (SMILES) | IC50
51 | CC(=O)Nc1nc2c(s1)-c1c(cnn1-c1ccc(C(=O)N[C@H]3CC[C@H](N4CCOCC4)CC3)cc1)CC2 | < 0.8 µM
52 | CN(C)C(=O)Nc1nc2c(s1)-c1nc(-c3ccccc3)ncc1CC2 | < 0.8 µM
53 | CN(C)c1ncc2c(n1)-c1sc(N)nc1CC2 | < 0.8 µM
54 | CC(=O)Nc1nc2c(s1)-c1c(cnn1-c1ccc(C)cc1)CC2 | < 0.8 µM
55 | CCNC(=O)Nc1nc2c(s1)-c1c(cnn1-c1ccccc1)CC2 | < 0.8 µM
56 | CC(=O)Nc1nc2c(s1)-c1c(cnn1-c1ccc(C(=O)N3CCN(C)CC3)cc1)CC2 | < 0.8 µM
57 | CC(=O)Nc1nc2c(s1)-c1nc(-c3ccccc3Cl)ncc1CC2 | < 0.8 µM
58 | CC(=O)Nc1nc2c(s1)-c1c(cnn1-c1ccccc1F)CC2 | < 0.8 µM
59 | NCC#CCNC(=O)Nc1nc2c(s1)-c1c(cnn1-c1ccccc1)CC2 | < 0.8 µM
60 | CC(=O)Nc1nc2c(s1)-c1nc(-c3cccc(C)c3)ncc1CC2 | < 0.8 µM
61 | CC(=O)Nc1nc2c(s1)-c1c(cnn1-c1ccc(C(=O)NCCn3ccnc3)cc1)CC2 | < 0.8 µM
62 | CC(=O)Nc1nc2c(s1)-c1c(cnn1-c1ccc(C(=O)N3CCC4(CCN(C)C4)C3)cc1)CC2 (stereo not drawn) | < 0.8 µM
63 | CC(=O)Nc1nc2c(s1)-c1c(cnn1-c1ccc(CC(=O)NC3CCS(=O)(=O)C3)cc1)CC2 (stereo not drawn) | < 0.8 µM
64 | CC(=O)Nc1nc2c(s1)-c1c(cnn1-c1ccc(S(=O)(=O)N(C)C)cc1)CC2 | < 0.8 µM
65 | CC(=O)Nc1nc2c(s1)-c1c(cnn1-c1ccc(C(=O)Nc3ccc(N4CCN(C)CC4)cc3)cc1)CC2 | < 0.8 µM
66 | CC(=O)Nc1nc2c(s1)-c1nc(-c3ccccc3)ncc1C2 | < 0.8 µM
67 | CC(=O)Nc1nc2c(s1)-c1c(cnn1-c1ccc(C(=O)N(C)CC#N)cc1)CC2 | < 0.8 µM
68 | CC(=O)Nc1nc2c(s1)-c1c(cnn1-c1ccc(S(C)(=O)=O)cc1)CC2 | < 0.8 µM
69 | CC(=O)Nc1nc2c(s1)-c1nc(-c3ccccc3C)ncc1CC2 | < 0.8 µM
70 | CC(=O)Nc1nc2c(s1)-c1c(cnn1-c1ccc(CC(=O)N3CCC(CO)CC3)cc1)CC2 | < 0.8 µM
71 | COCc1nn(-c2ccc(C(=O)NC3CCN(C)CC3)cc2Cl)c2c1CCc1nc(NC(C)=O)sc1-2 | < 0.8 µM
72 | CC(=O)Nc1nc2c(s1)-c1c(c(C(C)C)nn1-c1ccccc1)CC2 | < 0.8 µM
73 | CC(=O)Nc1nc2c(s1)-c1c(cnn1-c1ccc3ncsc3c1)CC2 | < 0.8 µM
74 | CC(=O)Nc1nc2c(s1)-c1c(cnn1-c1ccc(C(=O)N3CCC(N4CCCS4(=O)=O)CC3)cc1)CC2 | < 0.8 µM
75 | Nc1nc2c(s1)-c1c(cnn1-c1ccc([N+](=O)[O-])cc1)CC2 | < 0.8 µM

Row | Structure (SMILES) | IC50
76 | COC(=O)c1nn(-c2c(Cl)cccc2Cl)c2c1CCc1nc(NC(C)=O)sc1-2 | < 0.8 µM
77 | CC(=O)Nc1nc2c(s1)-c1c(c(-c3ccccn3)nn1-c1ccccc1Br)CC2 | < 0.8 µM
78 | CN(C)CCCC(=O)Nc1nc2c(s1)-c1c(cnn1-c1ccccc1Cl)C2 | < 0.8 µM
79 | C#Cc1nn(-c2ccccc2C(F)(F)F)c2c1CCc1nc(NC(C)=O)sc1-2 | < 0.8 µM
80 | CC(=O)Nc1nc2c(s1)-c1c(cnn1-c1ccc(C(=O)N3CCCC3c3ccncc3)cc1)CC2 (stereo not drawn) | < 0.8 µM
81 | CC(=O)Nc1nc2c(s1)-c1c(cnn1-c1ccc(C(=O)N3CCC(N4CCNC4=O)CC3)cc1)CC2 | < 0.8 µM
82 | CC(=O)Nc1nc2c(s1)-c1c(cnn1C1C=CCCC1)CC2 (stereo not drawn) | < 0.8 µM
83 | CC(=O)Nc1nc2c(s1)-c1c(c(-c3cn(C)cn3)nn1-c1ccccc1C)CC2 | < 0.8 µM
84 | CC(=O)Nc1nc2c(s1)-c1nc(-c3ccccn3)ncc1CC2 | < 0.8 µM
85 | CC(=O)Nc1nc2c(s1)-c1c(cnn1-c1ccc(C(=O)N[C@H]3CC[C@H](N4CCCC4)CC3)cc1)CC2 | < 0.8 µM
86 | CC(=O)Nc1nc2c(s1)-c1c(c(-c3ccco3)nn1-c1ccccc1Br)CC2 | < 0.8 µM
87 | CC(=O)Nc1nc2c(s1)-c1c(c(-c3ccco3)nn1-c1cccc(Cl)c1)CC2 | < 0.8 µM
88 | CC(C)(C)NC(=O)NCC#CCNC(=O)Nc1nc2c(s1)-c1c(cnn1-c1ccccc1)CC2 | < 0.8 µM
89 | CC(=O)Nc1nc2c(s1)-c1c(cnn1-c1ccc(C(=O)N[C@H]3CC[C@H](N)CC3)cc1)CC2 | < 0.8 µM
90 | COC(=O)Nc1nc2c(s1)-c1c(cnn1-c1ccccc1)CC2 | < 0.8 µM
91 | CNC(=O)Nc1nc2c(s1)-c1nc(-c3ccccc3C)ncc1CC2 | < 0.8 µM
92 | CC(=O)Nc1nc2c(s1)-c1c(cnn1-c1ccc(C(=O)N[C@@H](COCc3ccccc3)C(N)=O)cc1Cl)CC2 | < 0.8 µM
93 | CC(=O)Nc1nc2c(s1)-c1c(c(C(C)C)nn1-c1ccc(C(=O)NC3CCN(C)CC3)cc1Cl)CC2 | < 0.8 µM
94 | CC(=O)Nc1nc2c(s1)-c1c(c(C)nn1-c1ccccc1)CC2 | < 0.8 µM
95 | CC(=O)Nc1nc2c(s1)-c1c(cnn1-c1ccc(CC(=O)NC3CCOC3=O)cc1)CC2 (stereo not drawn) | < 0.8 µM
96 | CC(=O)Nc1nc2c(s1)-c1c(cnn1-c1ccc(C(=O)N[C@H]3CCc4nc(N)sc4C3)cc1)CC2 | < 0.8 µM
97 | CC(=O)Nc1nc2c(s1)-c1c(cnn1-c1ccc(C(=O)N3CCC(NC(=O)Cc4ccccc4)CC3)cc1)CC2 | < 0.8 µM
98 | O=C(Nc1nc2c(s1)-c1c(cnn1-c1ccccc1)CC2)N1CCOCC1 | < 0.8 µM

— the Kinase Knowledgebase extract (Sharma et al. 2016)
